Assay results reported in PubChem BioAssay (NCI).
Several values for one entry are separate records, joined by “and”; a condition that tells them apart may be missing. Equal entries are not always repeated.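 In this assay, cells in 96-well plates receive the compound at five concentrations for 48 hours. Endpoints are linearly interpolated between the surrounding concentrations. At the GI50, growth is halved. TGI is the concentration that stops growth completely.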

Key:
Experiment in all cases: NCI anticancer screen, dose series, 48 h
U251 CNS = system: U251 CNS
MDA-MB-435 = system: MDA-MB-435
COLO 205 colon = system: COLO 205 colon
UO-31 renal = system: UO-31 renal
HOP-92 NSCLC = system: HOP-92 NSCLC
CCRF-CEM leukemia = system: CCRF-CEM leukemia
RXF 393 renal = system: RXF 393 renal
T-47D breast = system: T-47D breast
SF-295 CNS = system: SF-295 CNS
NCI/ADR-RES ovarian = system: NCI/ADR-RES ovarian

Compound	TGI (U251 CNS)	TGI (MDA-MB-435)	TGI (COLO 205 colon)	TGI (UO-31 renal)	TGI (HOP-92 NSCLC)	TGI (CCRF-CEM leukemia)	TGI (RXF 393 renal)	TGI (T-47D breast)	TGI (SF-295 CNS)	GI50 (MDA-MB-435)	GI50 (NCI/ADR-RES ovarian)	TGI (NCI/ADR-RES ovarian)	GI50 (T-47D breast)	GI50 (U251 CNS)	GI50 (COLO 205 colon)	GI50 (CCRF-CEM leukemia)	GI50 (SF-295 CNS)	GI50 (UO-31 renal)	GI50 (HOP-92 NSCLC)	GI50 (RXF 393 renal)
COC(=O)c1ccccc1NC(=O)C(=O)CC(=O)c1ccccc1NC1=CC(=O)C(=O)c2ccccc21	67.4 µM	8.59 µM	53.1 µM	69 µM	32.5 µM	33.9 µM	57.5 µM	> 95 µM	> 49.8 µM	–	–	–	–	–	–	–	–	–	–	–
N/N=C1\c2ccccc2C2/C(=N\N)c3ccccc3C12 (stereo not given)	> 100 µM	–	> 100 µM	–	> 100 µM	> 100 µM	> 100 µM	–	> 100 µM	–	–	–	–	–	–	–	–	–	–	–
CCOc1ccccc1NC(=O)CCc1nnc2s/c(=C\CCc3ccccc3)c(=O)n12	> 100 µM	–	> 100 µM	> 100 µM	> 100 µM	> 100 µM	> 100 µM	–	> 100 µM	–	–	–	–	–	–	–	–	–	–	–
Cc1cc(O)c2c(c1)C(=O)c1cc(O)cc(O)c1C2=O	> 96.3 µM	62.5 µM	42 µM	–	56.8 µM	> 100 µM	> 100 µM	> 100 µM	> 83.1 µM	18.1 µM	36.8 µM	> 100 µM	21.2 µM	–	–	–	–	–	–	–
Cc1ccc(NS(=O)(=O)c2cc(C(C)(C)C)ccc2OCCOCCOCCOc2ccc(C(C)(C)C)cc2S(=O)(=O)Nc2ccc(C)cc2)cc1	> 100 µM	–	> 100 µM	> 100 µM	> 100 µM	> 100 µM	> 100 µM	–	> 100 µM	–	–	–	–	–	–	–	–	–	–	–
CC(=O)OCC1OC(OC2CC3C(C)(C)C(OC(C)=O)CC[C@]3(C)C3CCC45CC4(CC[C@H]5C(C)CC(O)C4OC4(C)C)[C@]23C)C(O)C(O)C1O (stereo not given in full)	7.73 µM and 11.8 µM	–	1.84 µM and 3.79 µM	11.1 µM and 14.4 µM	6.33 µM	2.3 µM and 5.04 µM	4 µM	–	5.5 µM and 11 µM	–	–	–	–	3.13 µM	2.05 µM	2.19 µM	3.34 µM	–	–	–
C=C(CNCCc1ccc(O)cc1)[C@@H]1CC[C@]2(CO)CC[C@]3(C)[C@H](CC[C@@H]4[C@@]5(C)CCC(=O)C(C)(C)[C@@H]5CC[C@]43C)[C@@H]12	2.92 µM	3.22 µM	3.32 µM	2.58 µM	2.26 µM	5.26 µM	2.59 µM	4 µM	3.22 µM	1.74 µM	–	–	1.72 µM	1.56 µM	1.73 µM	1.92 µM	1.74 µM	1.3 µM	1.01 µM	1.28 µM
O=C([O-])c1ccc2c(c1)-c1nc-2nc2[n-]c(nc3nc(nc4[n-]c(n1)c1ccc(C(=O)[O-])cc41)-c1cc(C(=O)[O-])ccc1-3)c1ccc(C(=O)[O-])cc21.[Fe+2]	> 50 µM	–	> 31.2 µM	> 50 µM	> 50 µM	> 31.3 µM	> 50 µM	–	> 50 µM	–	–	–	–	> 38.4 µM	> 22.2 µM	> 22.2 µM	> 50 µM	> 50 µM	> 50 µM	> 50 µM
CO[C@H]1[C@H](O)[C@H](O[C@H]2CC[C@@]3(C)[C@H](CC[C@@H]4[C@@H]3CC[C@]3(C)[C@@H](C5=CC(=O)OC5)CC[C@]43O)C2)O[C@@H](C)[C@@H]1O	0.00385 µM and 0.0152 µM	< 0.0001 µM	0.00509 µM and 0.0316 µM	0.00201 µM	0.00571 µM and 0.0336 µM	0.00107 µM	–	0.0194 µM	0.00224 µM and < 0.0107 µM	–	–	0.00115 µM	0.00395 µM	–	–	0.000406 µM	–	–	–	–
